Legend:
Experiment in all cases: Histone peptide microarray
Type in all cases: binding, human
Details in all cases: sheet "Array Heatmap"
AIRE (PP) = test system: AIRE (PP)
How it was run: (§1)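 GST-tagged PHD readers, 0.5 μM, probed on a microarray of 293 synthetic histone peptides carrying single or combinatorial PTMs (optimized Petell protocol). Signals are averaged over 4 replicates and expressed as relative binding.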

BAZ2B = test system: BAZ2B
How it was run: as §1

BPTF (PB) = test system: BPTF (PB)
How it was run: as §1

CHD4 (PPCC) = test system: CHD4 (PPCC)
How it was run: as §1

CHD5 (PCC) = test system: CHD5 (PCC)
How it was run: as §1

CHD5 (PPCC) = test system: CHD5 (PPCC)
How it was run: as §1

DIDO1 = test system: DIDO1
How it was run: as §1

DPF2 (PPC2W2) = test system: DPF2 (PPC2W2)
How it was run: as §1

ING1 = test system: ING1
How it was run: as §1

ING2 = test system: ING2
How it was run: as §1

ING3 = test system: ING3
How it was run: as §1

ING4 = test system: ING4
How it was run: as §1

ING5 = test system: ING5
How it was run: as §1

KDM4C (TTP) = test system: KDM4C (TTP)
How it was run: as §1

KDM5A (1) = test system: KDM5A (1)
How it was run: as §1

KDM5A (3) = test system: KDM5A (3)
How it was run: as §1

KDM5B (1) = test system: KDM5B (1)
How it was run: as §1

KDM5B (3) = test system: KDM5B (3)
How it was run: as §1

KDM7A = test system: KDM7A
How it was run: as §1

MLL5 = test system: MLL5
How it was run: as §1

MORC3 (CW) = test system: MORC3 (CW)
How it was run: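 Purified PHD finger domains fused to GST are screened against 293 synthetic histone peptides bearing one or several post-translational modifications. The protein is used at 0.5 μM, and the signal from four replicate arrays is averaged, with standard deviation given.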

PHF13 = test system: PHF13
How it was run: as §1

PHF21A = test system: PHF21A
How it was run: as §1

PHF23 = test system: PHF23
How it was run: as §1

PHF2 = test system: PHF2
How it was run: as §1

PHF8 = test system: PHF8
How it was run: as §1

PHRF1 (RP) = test system: PHRF1 (RP)
How it was run: as §1

RAG2 = test system: RAG2
How it was run: as §1

SP140L = test system: SP140L
How it was run: as §1

TAF3 = test system: TAF3
How it was run: as §1

TRIM66 (PB) = test system: TRIM66 (PB)
How it was run: as §1

[1] = GST-tagged reader, histone peptide array, total n = 4

With H3K9me2 + K27me1 (1-32): H3 1-20 the “Array Heatmap signal, AIRE (PP)” value (AIRE (PP); GST-tagged AIRE (PP), arrays performed twice, total replicate number n = 4) was 0.4239, the “Array Heatmap signal, BAZ2B” value (BAZ2B; GST-tagged BAZ2B, arrays performed twice, total replicate number n = 4) was 0.4338 and the “Array Heatmap signal, BPTF (PB)” value (BPTF (PB); GST-tagged BPTF (PB), arrays performed twice, total replicate number n = 4) was 0.3305. The “Array Heatmap signal, CHD4 (PPCC)” value (CHD4 (PPCC); GST-tagged CHD4 (PPCC), arrays performed twice, total replicate number n = 4) was 0.5346, the “Array Heatmap signal, CHD5 (PCC)” value (CHD5 (PCC); GST-tagged CHD5 (PCC), arrays performed twice, total replicate number n = 4) was 0.7436 and the “Array Heatmap signal, CHD5 (PPCC)” value (CHD5 (PPCC); GST-tagged CHD5 (PPCC), arrays performed twice, total replicate number n = 4) was 0.5173. The “Array Heatmap signal, DIDO1” value (DIDO1; GST-tagged DIDO1, arrays performed twice, total replicate number n = 4) was 0.7123, the “Array Heatmap signal, DPF2 (PPC2W2)” value (DPF2 (PPC2W2); GST-tagged DPF2 (PPC2W2), arrays performed twice, total replicate number n = 4) was 0.7331 and the “Array Heatmap signal, ING1” value (ING1; GST-tagged ING1, arrays performed twice, total replicate number n = 4) was 0.5289. For the same substance, the “Array Heatmap signal, ING2” value (ING2; GST-tagged ING2, arrays performed twice, total replicate number n = 4) was 0.6071, the “Array Heatmap signal, ING3” value (ING3; GST-tagged ING3, arrays performed twice, total replicate number n = 4) was 0.4513 and the “Array Heatmap signal, ING4” value (ING4; GST-tagged ING4, arrays performed twice, total replicate number n = 4) was 0.4312. The “Array Heatmap signal, ING5” value (ING5; GST-tagged ING5, arrays performed twice, total replicate number n = 4) was 0.3315, the “Array Heatmap signal, KDM4C (TTP)” value (KDM4C (TTP); GST-tagged KDM4C (TTP), arrays performed twice, total replicate number n = 4) was 0.4309 and the “Array Heatmap signal, KDM5A (1)” value (KDM5A (1); GST-tagged KDM5A (1), arrays performed twice, total replicate number n = 4) was 0.4383. For the same substance, the “Array Heatmap signal, KDM5A (3)” value (KDM5A (3); GST-tagged KDM5A (3), arrays performed twice, total replicate number n = 4) was 0.5076, the “Array Heatmap signal, KDM5B (1)” value (KDM5B (1); GST-tagged KDM5B (1), arrays performed twice, total replicate number n = 4) was 0.6244 and the “Array Heatmap signal, KDM5B (3)” value (KDM5B (3); GST-tagged KDM5B (3), arrays performed twice, total replicate number n = 4) was 0.4925. For the same substance, the “Array Heatmap signal, KDM7A” value (KDM7A; GST-tagged KDM7A, arrays performed twice, total replicate number n = 4) was 0.3071, the “Array Heatmap signal, MLL5” value (MLL5; GST-tagged MLL5, arrays performed twice, total replicate number n = 4) was 0.5528 and the “Array Heatmap signal, MORC3 (CW)” value (MORC3 (CW); GST-tagged MORC3 (CW), arrays performed twice, total replicate number n = 4) was 0.4746. For the same substance, the “Array Heatmap signal, PHF13” value (PHF13; GST-tagged PHF13, arrays performed twice, total replicate number n = 4) was 0.5951, the “Array Heatmap signal, PHF21A” value (PHF21A; GST-tagged PHF21A, arrays performed twice, total replicate number n = 4) was 0.4343 and the “Array Heatmap signal, PHF23” value (PHF23; GST-tagged PHF23, arrays performed twice, total replicate number n = 4) was 0.5468. For the same substance, the “Array Heatmap signal, PHF2” value (PHF2; GST-tagged PHF2, arrays performed twice, total replicate number n = 4) was 0.587, the “Array Heatmap signal, PHF8” value (PHF8; GST-tagged PHF8, arrays performed twice, total replicate number n = 4) was 0.3466 and the “Array Heatmap signal, PHRF1 (RP)” value (PHRF1 (RP); GST-tagged PHRF1 (RP), arrays performed twice, total replicate number n = 4) was 0.767. The “Array Heatmap signal, RAG2” value (RAG2; GST-tagged RAG2, arrays performed twice, total replicate number n = 4) was 0.2412, the “Array Heatmap signal, SP140L” value (SP140L; GST-tagged SP140L, arrays performed twice, total replicate number n = 4) was 0.3321 and the “Array Heatmap signal, TAF3” value (TAF3; GST-tagged TAF3, arrays performed twice, total replicate number n = 4) was 0.256. For the same substance, the “Array Heatmap signal, TRIM66 (PB)” value (TRIM66 (PB); GST-tagged TRIM66 (PB), arrays performed twice, total replicate number n = 4) was 0.6366.
In the case of H3K9me2 + K27me2: H3 6-30, the “Array Heatmap signal, AIRE (PP)” value (AIRE (PP); [1]) is reported as 0.5158, the “Array Heatmap signal, BAZ2B” value (BAZ2B; [1]) is reported as 0.4949 and the “Array Heatmap signal, BPTF (PB)” value (BPTF (PB); [1]) is reported as 0.3713. For the same substance, the “Array Heatmap signal, CHD4 (PPCC)” value (CHD4 (PPCC); [1]) was 0.615, the “Array Heatmap signal, CHD5 (PCC)” value (CHD5 (PCC); [1]) was 0.8305 and the “Array Heatmap signal, CHD5 (PPCC)” value (CHD5 (PPCC); [1]) was 0.6064. The “Array Heatmap signal, DIDO1” value (DIDO1; [1]) was 0.6649, the “Array Heatmap signal, DPF2 (PPC2W2)” value (DPF2 (PPC2W2); [1]) was 0.6273 and the “Array Heatmap signal, ING1” value (ING1; [1]) was 0.5223. The “Array Heatmap signal, ING2” value (ING2; [1]) was 0.6067, the “Array Heatmap signal, ING3” value (ING3; [1]) was 0.521 and the “Array Heatmap signal, ING4” value (ING4; [1]) was 0.4936. For the same substance, the “Array Heatmap signal, ING5” value (ING5; [1]) was 0.3864, the “Array Heatmap signal, KDM4C (TTP)” value (KDM4C (TTP); [1]) was 0.5461 and the “Array Heatmap signal, KDM5A (1)” value (KDM5A (1); [1]) was 0.5009. The “Array Heatmap signal, KDM5A (3)” value (KDM5A (3); [1]) was 0.4645, the “Array Heatmap signal, KDM5B (1)” value (KDM5B (1); [1]) was 0.6708 and the “Array Heatmap signal, KDM5B (3)” value (KDM5B (3); [1]) was 0.4954. For the same substance, the “Array Heatmap signal, KDM7A” value (KDM7A; [1]) was 0.3867, the “Array Heatmap signal, MLL5” value (MLL5; [1]) was 0.5274 and the “Array Heatmap signal, MORC3 (CW)” value (MORC3 (CW); [1]) was 0.385. For the same substance, the “Array Heatmap signal, PHF13” value (PHF13; [1]) was 0.655, the “Array Heatmap signal, PHF21A” value (PHF21A; [1]) was 0.4962 and the “Array Heatmap signal, PHF23” value (PHF23; [1]) was 0.5491. The “Array Heatmap signal, PHF2” value (PHF2; [1]) was 0.4856, the “Array Heatmap signal, PHF8” value (PHF8; [1]) was 0.3721 and the “Array Heatmap signal, PHRF1 (RP)” value (PHRF1 (RP); [1]) was 0.4454. For the same substance, the “Array Heatmap signal, RAG2” value (RAG2; [1]) was 0.2639, the “Array Heatmap signal, SP140L” value (SP140L; [1]) was 0.3642 and the “Array Heatmap signal, TAF3” value (TAF3; [1]) was 0.2757. For the same substance, the “Array Heatmap signal, TRIM66 (PB)” value (TRIM66 (PB); [1]) was 0.6036.
H3K9pro: H3 1-20 [Peptide H3K9pro] was tested, and the “Array Heatmap value (peptide array signal)” value (“Array Heatmap value” below) (AIRE (PP); AIRE (PP), each array performed twice, total n = 4) was 0.411, the “Array Heatmap value” value (BAZ2B; BAZ2B, each array performed twice, total n = 4) was 0.4231 and the “Array Heatmap value” value (BPTF (PB); BPTF (PB), each array performed twice, total n = 4) was 0.3368. For the same substance, the “Array Heatmap value” value (CHD4 (PPCC); CHD4 (PPCC), each array performed twice, total n = 4) was 0.5901, the “Array Heatmap value” value (CHD5 (PCC); CHD5 (PCC), each array performed twice, total n = 4) was 0.7611 and the “Array Heatmap value” value (CHD5 (PPCC); CHD5 (PPCC), each array performed twice, total n = 4) was 0.5229. The “Array Heatmap value” value (DIDO1; DIDO1, each array performed twice, total n = 4) was 0.6439, the “Array Heatmap value” value (DPF2 (PPC2W2); DPF2 (PPC2W2), each array performed twice, total n = 4) was 0.7007 and the “Array Heatmap value” value (ING1; ING1, each array performed twice, total n = 4) was 0.5254. For the same substance, the “Array Heatmap value” value (ING2; ING2, each array performed twice, total n = 4) was 0.6039, the “Array Heatmap value” value (ING3; ING3, each array performed twice, total n = 4) was 0.4734 and the “Array Heatmap value” value (ING4; ING4, each array performed twice, total n = 4) was 0.4451. The “Array Heatmap value” value (ING5; ING5, each array performed twice, total n = 4) was 0.3309, the “Array Heatmap value” value (KDM4C (TTP); KDM4C (TTP), each array performed twice, total n = 4) was 0.4589 and the “Array Heatmap value” value (KDM5A (1); KDM5A (1), each array performed twice, total n = 4) was 0.4409. For the same substance, the “Array Heatmap value” value (KDM5A (3); KDM5A (3), each array performed twice, total n = 4) was 0.4398, the “Array Heatmap value” value (KDM5B (1); KDM5B (1), each array performed twice, total n = 4) was 0.6726 and the “Array Heatmap value” value (KDM5B (3); KDM5B (3), each array performed twice, total n = 4) was 0.4382. The “Array Heatmap value” value (KDM7A; KDM7A, each array performed twice, total n = 4) was 0.3118, the “Array Heatmap value” value (MLL5; MLL5, each array performed twice, total n = 4) was 0.5292 and the “Array Heatmap value” value (MORC3 (CW); MORC3 (CW), each array performed twice, total n = 4) was 0.4445. The “Array Heatmap value” value (PHF13; PHF13, each array performed twice, total n = 4) was 0.5854, the “Array Heatmap value” value (PHF21A; PHF21A, each array performed twice, total n = 4) was 0.4435 and the “Array Heatmap value” value (PHF23; PHF23, each array performed twice, total n = 4) was 0.5285. The “Array Heatmap value” value (PHF2; PHF2, each array performed twice, total n = 4) was 0.4692, the “Array Heatmap value” value (PHF8; PHF8, each array performed twice, total n = 4) was 0.3451 and the “Array Heatmap value” value (PHRF1 (RP); PHRF1 (RP), each array performed twice, total n = 4) was 0.5869. The “Array Heatmap value” value (RAG2; RAG2, each array performed twice, total n = 4) was 0.2419, the “Array Heatmap value” value (SP140L; SP140L, each array performed twice, total n = 4) was 0.3673 and the “Array Heatmap value” value (TAF3; TAF3, each array performed twice, total n = 4) was 0.2557. For the same substance, the “Array Heatmap value” value (TRIM66 (PB); TRIM66 (PB), each array performed twice, total n = 4) was 0.5807.

Source: article PMC6979384, “Characterization of the plant homeodomain (PHD) reader family for their histone tail interactions” (Epigenetics & Chromatin, 2020)
